In article PMC3596085 (International journal for parasitology, drugs and drug …, 2012):
Like-named read-outs stand apart in the source and are kept apart here.

How the values were obtained:
human CYP51 [1] = assay: Reconstitution of CYP51 activity in vitro; assay type: biochemical; details: 60′ reaction, lanosterol
[2] = test system: NIH/3T3 mouse embryonic fibroblasts; assay: Growth inhibition assay using 5-bromodeoxyuridine incorporation; assay type: cell-based; details: 50 μM, 24 h treatment, BrdU incorporation, vs DMSO
human CYP3A4 [3] = biological target: T1, human CYP3A4 (Homo sapiens, UniProt P08684)
T1 sequence (P08684 whole entry): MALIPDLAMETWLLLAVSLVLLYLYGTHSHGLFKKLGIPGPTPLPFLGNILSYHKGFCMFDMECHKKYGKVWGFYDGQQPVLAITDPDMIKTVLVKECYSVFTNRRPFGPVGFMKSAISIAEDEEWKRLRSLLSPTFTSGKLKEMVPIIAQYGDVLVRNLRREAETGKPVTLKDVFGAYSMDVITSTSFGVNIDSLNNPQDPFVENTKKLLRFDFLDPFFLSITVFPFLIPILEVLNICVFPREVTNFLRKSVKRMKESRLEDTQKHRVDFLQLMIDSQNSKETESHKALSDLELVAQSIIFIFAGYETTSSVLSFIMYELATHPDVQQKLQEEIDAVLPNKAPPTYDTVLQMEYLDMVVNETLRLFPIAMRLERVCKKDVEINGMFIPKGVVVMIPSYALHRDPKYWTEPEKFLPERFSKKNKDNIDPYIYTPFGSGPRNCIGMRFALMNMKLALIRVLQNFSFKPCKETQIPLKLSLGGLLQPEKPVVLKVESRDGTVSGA

[4] = Growth inhibition assay using 5-bromodeoxyuridine incorporation; assay type: cell-based, mouse; details: mouse
T. cruzi CYP51 [5] = biological target: T. cruzi CYP51 (Trypanosoma cruzi, UniProt Q7Z1V1); assay: CYP51 spectral titration; assay type: binding
Sequence of T. cruzi CYP51 (Trypanosoma cruzi, UniProt Q7Z1V1) (Q7Z1V1 whole entry): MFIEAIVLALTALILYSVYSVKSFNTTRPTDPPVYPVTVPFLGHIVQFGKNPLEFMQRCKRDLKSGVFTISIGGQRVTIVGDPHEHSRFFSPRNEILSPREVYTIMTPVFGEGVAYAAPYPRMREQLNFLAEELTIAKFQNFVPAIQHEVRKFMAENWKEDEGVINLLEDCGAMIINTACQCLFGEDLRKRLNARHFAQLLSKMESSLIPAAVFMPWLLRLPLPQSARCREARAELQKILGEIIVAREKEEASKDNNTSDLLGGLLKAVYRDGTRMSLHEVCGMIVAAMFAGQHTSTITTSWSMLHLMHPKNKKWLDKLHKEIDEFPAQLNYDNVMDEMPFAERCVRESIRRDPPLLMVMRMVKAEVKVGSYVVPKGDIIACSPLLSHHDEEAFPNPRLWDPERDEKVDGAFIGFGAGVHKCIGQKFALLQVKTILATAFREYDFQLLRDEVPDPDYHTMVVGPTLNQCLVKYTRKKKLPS

[6] = VNI oral pharmacokinetics in mouse plasma; assay type: in vivo; details: 25 mg/kg
[7] = Acute mice toxicity study; assay type: in vivo, mouse; details: female, Swiss Webster, mouse, in vivo, po
[8] = test system: Female Swiss Webster mice; assay: Acute mice toxicity study; assay type: in vivo, mouse; details: oral, up to 400 mg/kg, up to 48 h
T. cruzi CYP51 [9] = details: standard CYP51 reaction conditions; ref Lepesheva et al., 2007; cited from earlier work
T. brucei CYP51 = details: standard CYP51 reaction conditions; ref Lepesheva et al., 2007; cited from earlier work
human CYP51 [10] = details: standard CYP51 reaction conditions; ref Lepesheva et al., 2008; cited from earlier work
[11] = test system: T. cruzi CYP51 gene expression; details: ref Lepesheva et al., 2010a; cited from earlier work
Trypanosoma cruzi = details: ref Villalta et al., submitted for publication; cited from earlier work
T. brucei = details: ref Lepesheva et al., 2010b; cited from earlier work
human CYP3A4 [12] = biological target: T1, human CYP3A4; assay: Inhibitory effect on CYP3A4

With `O=C(N[C@H](Cn1ccnc1)c1ccc(Cl)cc1Cl)c1ccc(-c2nnc(-c3ccccc3)o2)cc1` (single isomer, unassigned) [VNI S-enantiomer] the “CYP51 inhibition, Human (inhibitor/enzyme molar ratio for 50% inhibition)” value (human CYP51 [1]) was >200, the “Mammalian cell growth: % of viable 3T3 cells at 50 μM” value (shortened to “Mammalian cell growth: %”) [2] was 77.1 ± 2.6% and the IC50 (human CYP3A4 [3]) was 290 ± 19 nM.
`CC(=O)N1CCN(c2ccc(OCC3COC(Cn4ccnc4)(c4ccc(Cl)cc4Cl)O3)cc2)CC1` (stereo not drawn) [Ketoconazole, reference compound] showed a viability at 24 h, 50 µM [4] of 0%.
For `O=C(N[C@@H](Cn1ccnc1)c1ccc(Cl)cc1Cl)c1ccc(-c2nnc(-c3ccccc3)o2)cc1` [VNI, (R)-N-(1-(2,4-dichlorophenyl)-2-(1H-imidazol-1-yl)ethyl)-4-(5-phenyl-1,3,4-oxadiazol-2-yl)benzamide], the Kd (T. cruzi CYP51 [5]) was 90 ± 10 nM, the “CYP51 inhibition, Human (inhibitor/enzyme molar ratio for 50% inhibition)” value (human CYP51 [1]) was >200 and the “Mammalian cell growth: %” value ([2]; 50 µM) was 76.8 ± 2.1%. For the same molecule, the concentration at 2 h [6] was 40 µM, the concentration at 8 h [6] was > 20 µM and the NOAEL at 48 h [7] was 400 mg/kg. For the same molecule, the mortality [8] was “neither leads to mortality”, the “inhibition of T. cruzi CYP51 activity at 1:1 molar ratio to the enzyme” value (T. cruzi CYP51 [9]) was “completely inhibit” and the “inhibition of T. brucei CYP51 activity at 1:1 molar ratio to the enzyme” value (T. brucei CYP51) was “completely inhibit”. For the same molecule, the “inhibition of the human CYP51 ortholog” value (human CYP51 [10]) was “do not inhibit”, the “induction of T. cruzi CYP51 gene expression” value [11] was “do not induce” and the “effect in the murine model of Chagas disease” value (Trypanosoma cruzi) was “Curative effect”. The “parasitemia in the mouse model of T. brucei infection” value (T. brucei) was “slows down parasitemia” and the IC50 (human CYP3A4 [12]) was 405 ± 23 nM.
In the case of VNI/VNF combination, the “CYP51 inhibition, Human (inhibitor/enzyme molar ratio for 50% inhibition)” value (human CYP51 [1]) is reported as 15 ± 0.9, the “Mammalian cell growth: %” value [2] is reported as 77.2 ± 6.3% and the IC50 (human CYP3A4 [3]) is reported as 3580 ± 271 nM.
